In US9707244B2, “Compositions and methods for treating conditions that affect epidermis” (Gencia Corporation, priority 2013, dated 2017):

Tested on: BJ human fibroblast cells
Experiment: Survival of fibroblasts treated with chemotherapeutic agents (DAPI fluorescence)
Type: cell-based
Settings: 48 hours, added simultaneously
Experimental: Fibroblasts were incubated with increasing amounts of Mitocreatine and certain anti-neoplastic agents, such as Cetuximab, Gemcitabine and Temozolomide. After incubation, cells were washed and the number of adherent (i.e. surviving) cells was assessed by DAPI fluorescence, which was measured utilizing a plate reader (PHERA Star FS from BMG Labtech). For these experiments two kinds of cells were used. Either the Human hepatocellular liver carcinoma cell line HepG2, or the BJ human fibroblast cells, which are established from normal human foreskin. […] Mitocreatine and the antineoplastic agent were added simultaneously.

Measured: survival of fibroblasts

CN(CC(=O)NCCC[P+](c1ccccc1)(c1ccccc1)c1ccccc1)C(=N)N.Cl.[Cl-] [Mitocreatine, N^2-[ammonio(imino)methyl]-N^2-methyl-N-[3-(triphenylphosphonio)propyl] glycinamide dichloride]
improved the survival: Gemcitabine (80 μM) | Temozolomide (1 mM) | high concentrations of Cetuximab
